Laboratory results published in patent publication US20220009920A1 (GB005, Inc., priority 2020, published 2022).

Assays:
Test in all cases: Large panel kinase profiling
Format in all cases: biochemical
Conditions in all cases: 1 μM test article, 1 mM ATP
CDC42BPB/MRCKB = biological target: T1, CDC42BPB/MRCKB (Homo sapiens, UniProt Q9Y5S2)
T1 construct: AssayQuant Technologies, Inc. (ran the panel)
Summary of the method: (§1)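 Fluorescence intensity (Ex 360 nm, Em 485 nm) was monitored continuously, once per minute, in PhosphoSens CSox-Sensor kinase reactions held at 30° C. Compound was present at 1 μM and ATP at 1 mM.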

CDK9/T1 = biological target: T2, CDK9/T1 (Homo sapiens, UniProt P50750)
T2 construct: AssayQuant Technologies, Inc. (ran the panel)
Summary of the method: as §1

AKT1 = AKT1 (Homo sapiens, UniProt P31749)
AKT1, sequence (P31749 whole entry): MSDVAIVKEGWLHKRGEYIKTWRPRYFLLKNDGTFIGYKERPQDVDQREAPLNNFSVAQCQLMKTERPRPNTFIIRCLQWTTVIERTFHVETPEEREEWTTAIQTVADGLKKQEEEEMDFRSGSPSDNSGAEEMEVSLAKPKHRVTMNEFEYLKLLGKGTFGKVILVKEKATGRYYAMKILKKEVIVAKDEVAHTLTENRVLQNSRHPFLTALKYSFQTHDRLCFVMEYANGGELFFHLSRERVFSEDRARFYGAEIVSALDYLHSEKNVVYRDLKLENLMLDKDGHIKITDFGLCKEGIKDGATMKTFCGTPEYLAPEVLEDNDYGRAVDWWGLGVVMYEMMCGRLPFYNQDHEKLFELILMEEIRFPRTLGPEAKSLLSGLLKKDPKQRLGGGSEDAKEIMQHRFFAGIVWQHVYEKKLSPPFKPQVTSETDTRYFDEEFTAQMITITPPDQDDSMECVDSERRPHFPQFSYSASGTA
Summary of the method: as §1

PIM2 = PIM2 (Homo sapiens, UniProt Q9P1W9)
Summary of the method: as §1

CAMK2G = biological target: T3, CAMK2G (Homo sapiens, UniProt Q13555)
T3 construct: AssayQuant Technologies, Inc. (ran the panel)
T3 sequence (Q13555 whole entry, species assumed): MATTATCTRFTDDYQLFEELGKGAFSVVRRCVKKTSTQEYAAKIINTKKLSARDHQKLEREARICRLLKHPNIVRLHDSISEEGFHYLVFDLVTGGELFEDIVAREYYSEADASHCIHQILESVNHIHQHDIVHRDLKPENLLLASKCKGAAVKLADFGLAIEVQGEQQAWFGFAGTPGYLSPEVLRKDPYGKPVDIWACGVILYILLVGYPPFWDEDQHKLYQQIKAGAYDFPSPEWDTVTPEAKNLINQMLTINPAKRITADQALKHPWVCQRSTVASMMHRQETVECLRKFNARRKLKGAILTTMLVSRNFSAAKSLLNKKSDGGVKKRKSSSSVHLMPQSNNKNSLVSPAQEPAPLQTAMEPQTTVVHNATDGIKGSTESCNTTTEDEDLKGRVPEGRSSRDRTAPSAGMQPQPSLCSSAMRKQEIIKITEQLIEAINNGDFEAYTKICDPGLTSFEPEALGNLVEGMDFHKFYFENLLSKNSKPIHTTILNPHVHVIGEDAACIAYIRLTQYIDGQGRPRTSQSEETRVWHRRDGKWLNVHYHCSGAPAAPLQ
Summary of the method: as §1

MYLK3 = biological target: T4, MYLK3 (Homo sapiens, UniProt Q32MK0)
T4 construct: AssayQuant Technologies, Inc. (assay service)
T4 sequence (Q32MK0 1-819): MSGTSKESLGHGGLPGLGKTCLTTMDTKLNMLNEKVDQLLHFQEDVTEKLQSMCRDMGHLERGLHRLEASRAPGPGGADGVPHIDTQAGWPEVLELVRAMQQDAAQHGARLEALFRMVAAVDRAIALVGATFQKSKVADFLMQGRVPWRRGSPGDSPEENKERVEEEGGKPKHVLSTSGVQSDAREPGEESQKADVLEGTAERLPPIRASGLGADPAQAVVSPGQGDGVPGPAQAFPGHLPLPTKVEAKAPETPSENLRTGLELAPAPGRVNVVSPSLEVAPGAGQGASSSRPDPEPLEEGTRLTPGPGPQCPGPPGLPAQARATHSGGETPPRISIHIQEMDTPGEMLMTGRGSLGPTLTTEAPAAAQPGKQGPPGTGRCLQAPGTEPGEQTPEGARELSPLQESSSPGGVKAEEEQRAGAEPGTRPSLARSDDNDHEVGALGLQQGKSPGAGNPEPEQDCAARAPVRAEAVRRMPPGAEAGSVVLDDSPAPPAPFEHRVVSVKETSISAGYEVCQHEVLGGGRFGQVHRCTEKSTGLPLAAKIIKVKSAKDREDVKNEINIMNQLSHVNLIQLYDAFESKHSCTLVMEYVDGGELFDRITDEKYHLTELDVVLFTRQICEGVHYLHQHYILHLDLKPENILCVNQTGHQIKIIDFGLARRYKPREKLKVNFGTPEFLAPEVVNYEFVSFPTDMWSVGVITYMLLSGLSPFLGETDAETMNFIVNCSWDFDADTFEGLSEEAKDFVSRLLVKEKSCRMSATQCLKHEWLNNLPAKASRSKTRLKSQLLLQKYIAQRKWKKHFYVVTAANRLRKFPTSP
Summary of the method: as §1

DDR2 = biological target: T5, DDR2 (Homo sapiens, UniProt Q16832)
T5 construct: AssayQuant Technologies, Inc. (service laboratory)
T5 sequence (Q16832 22-855): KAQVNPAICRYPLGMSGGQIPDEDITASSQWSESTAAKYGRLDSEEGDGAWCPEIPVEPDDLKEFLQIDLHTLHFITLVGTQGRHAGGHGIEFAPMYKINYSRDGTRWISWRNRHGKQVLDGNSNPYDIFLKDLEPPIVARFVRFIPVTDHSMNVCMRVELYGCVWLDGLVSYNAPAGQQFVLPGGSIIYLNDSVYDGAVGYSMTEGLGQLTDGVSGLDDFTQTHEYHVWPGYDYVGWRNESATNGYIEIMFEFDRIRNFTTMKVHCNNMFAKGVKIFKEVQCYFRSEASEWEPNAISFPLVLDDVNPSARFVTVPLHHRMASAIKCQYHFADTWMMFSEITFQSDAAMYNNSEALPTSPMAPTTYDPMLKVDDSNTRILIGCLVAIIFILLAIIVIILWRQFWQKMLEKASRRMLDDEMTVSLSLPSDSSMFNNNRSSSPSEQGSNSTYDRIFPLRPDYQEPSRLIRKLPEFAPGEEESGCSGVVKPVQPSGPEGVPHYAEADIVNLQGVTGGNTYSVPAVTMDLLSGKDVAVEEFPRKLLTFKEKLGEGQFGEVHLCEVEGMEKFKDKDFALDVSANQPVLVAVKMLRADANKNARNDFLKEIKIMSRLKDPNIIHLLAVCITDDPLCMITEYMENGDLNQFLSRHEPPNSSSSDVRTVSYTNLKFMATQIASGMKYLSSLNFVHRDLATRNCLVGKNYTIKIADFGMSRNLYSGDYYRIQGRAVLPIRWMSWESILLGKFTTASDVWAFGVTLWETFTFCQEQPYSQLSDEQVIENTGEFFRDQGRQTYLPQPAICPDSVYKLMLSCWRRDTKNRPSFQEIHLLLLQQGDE
Summary of the method: as §1

HCK = biological target: T6, HCK (Homo sapiens, UniProt P08631)
T6 construct: AssayQuant Technologies, Inc. (service provider)
Summary of the method: as §1

MET = biological target: T7, MET (Homo sapiens, UniProt P08581)
T7 construct: AssayQuant Technologies, Inc. (assay service)
T7 sequence (P08581 25-1390): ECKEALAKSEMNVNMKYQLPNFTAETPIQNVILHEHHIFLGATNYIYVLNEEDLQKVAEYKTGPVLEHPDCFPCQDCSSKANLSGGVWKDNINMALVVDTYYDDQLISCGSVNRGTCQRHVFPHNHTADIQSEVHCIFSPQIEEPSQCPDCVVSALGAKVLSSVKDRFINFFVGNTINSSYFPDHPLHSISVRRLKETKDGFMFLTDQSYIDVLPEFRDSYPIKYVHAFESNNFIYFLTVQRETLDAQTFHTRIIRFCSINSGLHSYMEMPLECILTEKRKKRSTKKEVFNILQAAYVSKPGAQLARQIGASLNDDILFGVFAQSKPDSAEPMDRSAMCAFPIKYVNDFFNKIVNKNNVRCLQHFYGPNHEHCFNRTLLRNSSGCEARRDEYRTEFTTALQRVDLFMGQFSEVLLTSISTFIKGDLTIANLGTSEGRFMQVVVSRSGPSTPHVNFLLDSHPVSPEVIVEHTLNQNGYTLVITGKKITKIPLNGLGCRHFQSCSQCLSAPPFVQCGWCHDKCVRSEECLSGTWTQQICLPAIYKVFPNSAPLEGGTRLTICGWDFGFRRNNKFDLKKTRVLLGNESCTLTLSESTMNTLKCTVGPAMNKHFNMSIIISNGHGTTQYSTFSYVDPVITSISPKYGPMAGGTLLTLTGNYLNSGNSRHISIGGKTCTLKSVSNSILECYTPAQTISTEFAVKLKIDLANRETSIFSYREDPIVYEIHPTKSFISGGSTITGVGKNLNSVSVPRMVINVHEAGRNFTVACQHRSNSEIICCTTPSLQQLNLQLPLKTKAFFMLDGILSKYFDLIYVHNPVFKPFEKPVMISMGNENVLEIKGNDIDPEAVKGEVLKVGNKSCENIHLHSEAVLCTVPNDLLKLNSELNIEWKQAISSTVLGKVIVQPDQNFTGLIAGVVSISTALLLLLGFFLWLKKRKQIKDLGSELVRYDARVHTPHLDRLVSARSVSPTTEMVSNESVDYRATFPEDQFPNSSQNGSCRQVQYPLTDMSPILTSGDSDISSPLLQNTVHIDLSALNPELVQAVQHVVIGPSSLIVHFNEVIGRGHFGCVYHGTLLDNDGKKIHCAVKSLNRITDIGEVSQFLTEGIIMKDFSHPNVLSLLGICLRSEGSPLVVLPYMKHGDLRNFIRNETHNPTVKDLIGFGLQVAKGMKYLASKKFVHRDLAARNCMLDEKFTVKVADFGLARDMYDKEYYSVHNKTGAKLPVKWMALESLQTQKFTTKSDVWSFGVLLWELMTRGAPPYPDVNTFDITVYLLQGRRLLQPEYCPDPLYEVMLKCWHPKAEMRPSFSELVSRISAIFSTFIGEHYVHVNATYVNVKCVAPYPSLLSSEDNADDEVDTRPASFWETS
Summary of the method: as §1

DAPK1 = biological target: T8, DAPK1 (Homo sapiens, UniProt P53355)
T8 construct: AssayQuant Technologies, Inc. (service laboratory)
T8 sequence (P53355 whole entry, species assumed): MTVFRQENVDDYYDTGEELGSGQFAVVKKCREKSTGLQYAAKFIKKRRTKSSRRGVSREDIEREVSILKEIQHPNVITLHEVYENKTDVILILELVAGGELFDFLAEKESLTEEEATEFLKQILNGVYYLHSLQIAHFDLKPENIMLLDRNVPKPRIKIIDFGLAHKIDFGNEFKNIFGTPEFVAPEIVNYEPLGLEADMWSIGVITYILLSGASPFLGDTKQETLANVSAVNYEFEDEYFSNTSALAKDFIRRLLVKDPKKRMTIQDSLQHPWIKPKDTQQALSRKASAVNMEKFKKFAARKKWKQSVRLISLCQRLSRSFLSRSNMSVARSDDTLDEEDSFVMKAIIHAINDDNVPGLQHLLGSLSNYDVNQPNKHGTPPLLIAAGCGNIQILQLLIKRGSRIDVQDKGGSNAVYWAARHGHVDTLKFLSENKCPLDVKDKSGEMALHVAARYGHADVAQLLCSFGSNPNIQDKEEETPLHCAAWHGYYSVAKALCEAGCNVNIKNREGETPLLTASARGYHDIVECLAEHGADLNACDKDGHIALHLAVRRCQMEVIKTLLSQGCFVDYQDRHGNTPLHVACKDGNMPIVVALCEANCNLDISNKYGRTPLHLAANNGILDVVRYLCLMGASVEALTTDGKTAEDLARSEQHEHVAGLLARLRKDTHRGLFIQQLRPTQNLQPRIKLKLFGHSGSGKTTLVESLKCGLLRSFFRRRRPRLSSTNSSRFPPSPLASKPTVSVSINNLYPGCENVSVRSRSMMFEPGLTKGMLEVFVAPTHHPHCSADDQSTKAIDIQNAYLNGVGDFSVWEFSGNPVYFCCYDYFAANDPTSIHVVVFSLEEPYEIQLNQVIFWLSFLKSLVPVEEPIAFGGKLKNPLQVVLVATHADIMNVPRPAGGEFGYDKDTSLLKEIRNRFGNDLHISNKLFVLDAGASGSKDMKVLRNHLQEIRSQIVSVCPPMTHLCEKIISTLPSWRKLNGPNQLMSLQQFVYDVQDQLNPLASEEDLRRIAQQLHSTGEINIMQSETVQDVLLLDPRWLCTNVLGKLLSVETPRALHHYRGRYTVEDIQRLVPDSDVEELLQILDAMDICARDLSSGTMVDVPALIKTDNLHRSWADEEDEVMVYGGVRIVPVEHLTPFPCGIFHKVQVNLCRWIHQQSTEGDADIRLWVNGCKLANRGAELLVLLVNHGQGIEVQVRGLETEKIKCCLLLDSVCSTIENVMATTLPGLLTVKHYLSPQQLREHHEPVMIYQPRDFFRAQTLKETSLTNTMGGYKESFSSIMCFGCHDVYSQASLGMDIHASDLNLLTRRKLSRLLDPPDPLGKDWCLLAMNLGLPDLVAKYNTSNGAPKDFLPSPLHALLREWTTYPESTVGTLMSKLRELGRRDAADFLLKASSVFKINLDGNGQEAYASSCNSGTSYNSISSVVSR
Summary of the method: as §1

PRKCD/CPKCD = PRKCD/CPKCD (Homo sapiens, UniProt Q05655)
PRKCD/CPKCD, sequence (Q05655 whole entry): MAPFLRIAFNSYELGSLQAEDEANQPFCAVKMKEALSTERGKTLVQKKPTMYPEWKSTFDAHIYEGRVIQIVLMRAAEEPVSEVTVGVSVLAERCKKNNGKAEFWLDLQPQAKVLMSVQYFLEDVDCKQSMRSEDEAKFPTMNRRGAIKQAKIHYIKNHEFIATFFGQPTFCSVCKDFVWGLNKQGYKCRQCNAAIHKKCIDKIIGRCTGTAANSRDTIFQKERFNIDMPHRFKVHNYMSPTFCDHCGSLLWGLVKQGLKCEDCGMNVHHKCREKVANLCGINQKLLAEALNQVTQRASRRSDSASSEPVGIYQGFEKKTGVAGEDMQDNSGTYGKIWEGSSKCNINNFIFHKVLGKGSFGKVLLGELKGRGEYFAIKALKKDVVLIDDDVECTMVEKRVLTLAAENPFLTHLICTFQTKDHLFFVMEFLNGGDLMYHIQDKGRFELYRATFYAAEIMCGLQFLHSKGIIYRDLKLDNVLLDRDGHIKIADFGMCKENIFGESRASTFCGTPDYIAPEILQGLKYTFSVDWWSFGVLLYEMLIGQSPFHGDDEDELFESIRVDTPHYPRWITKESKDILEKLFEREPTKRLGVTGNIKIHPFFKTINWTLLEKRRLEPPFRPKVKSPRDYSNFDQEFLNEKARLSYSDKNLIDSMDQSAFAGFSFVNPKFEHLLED
Summary of the method: as §1

BTK = biological target: T9, BTK (Homo sapiens, UniProt Q06187)
T9 construct: purchased Cama
Summary of the method: as §1

NEK4 = biological target: T10, NEK4 (Homo sapiens, UniProt P51957)
T10 construct: AssayQuant Technologies, Inc. (assay service)
Summary of the method: as §1

MAPK8/JNK1 = biological target: T11, MAPK8/JNK1 (Homo sapiens, UniProt P45983)
T11 construct: AssayQuant Technologies, Inc. (service provider)
T11 sequence (P45983 whole entry): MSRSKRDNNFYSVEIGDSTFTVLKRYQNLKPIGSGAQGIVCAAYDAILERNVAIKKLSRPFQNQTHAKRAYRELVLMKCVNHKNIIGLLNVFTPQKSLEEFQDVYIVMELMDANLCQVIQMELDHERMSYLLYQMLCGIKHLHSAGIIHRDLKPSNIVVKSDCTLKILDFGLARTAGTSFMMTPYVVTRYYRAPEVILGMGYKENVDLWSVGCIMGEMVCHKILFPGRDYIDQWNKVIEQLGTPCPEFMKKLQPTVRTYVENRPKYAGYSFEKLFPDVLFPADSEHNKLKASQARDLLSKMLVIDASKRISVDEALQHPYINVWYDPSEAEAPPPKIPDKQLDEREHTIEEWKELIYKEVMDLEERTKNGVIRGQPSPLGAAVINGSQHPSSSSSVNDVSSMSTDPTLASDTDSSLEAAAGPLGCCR
Summary of the method: as §1

Row | SMILES | inhibition at 1 µM (CDC42BPB/MRCKB) [%] | inhibition at 1 µM (CDK9/T1) [%] | inhibition at 1 µM (AKT1) [%] | inhibition at 1 µM (PIM2) [%] | inhibition at 1 µM (CAMK2G) [%] | inhibition at 1 µM (MYLK3) [%] | inhibition at 1 µM (DDR2) [%] | inhibition at 1 µM (HCK) [%] | inhibition at 1 µM (MET) [%] | inhibition at 1 µM (DAPK1) [%] | inhibition at 1 µM (PRKCD/CPKCD) [%] | inhibition at 1 µM (BTK) [%] | inhibition at 1 µM (NEK4) [%] | inhibition at 1 µM (MAPK8/JNK1) [%]
1 | C=CC(=O)N1CCCC(c2c(F)cc(C(N)=O)c3[nH]c4c(c23)CCCCC4)C1 (single isomer, unassigned) [Compound 5-6] | -31 | -11 | 20 | 2.5 | 15.7 | 21.5 | -6.5 | 6.8 | 12 | 8.1 | -42.2 | 92.8 | -5.3 | -0.6
2 | C=CC(=O)N1CCC[C@@H](c2c(F)cc(C(N)=O)c3[nH]c4c(c23)CC2(CC4)CC2)C1 [Compound 6-2, (S)-5-(1-acryloylpiperidin-3-yl)-6-fluoro-1,2,4,9-tetrahydrospiro[carbazole-3,1′-cyclopropane]-8-carboxamide] | -12.6 | -9.9 | -17 | 10.9 | -7.1 | 9.9 | -15.9 | 2.8 | 18.9 | 22.1 | -0.1 | 97.4 | -6.5 | 21.7
3 | C=CC(=O)N1CCC[C@@H](c2c(F)cc(C(N)=O)c3[nH]c4c(c23)CCC4)C1 [Compound 10-2, (S)-8-(1-acryloylpiperidin-3-yl)-7-fluoro-1,2,3,4-tetrahydrocyclo-penta[b]indole-5-carboxamide] | -10.2 | -26.7 | -14.8 | 3.3 | -37.5 | 14.9 | -26.7 | -5.8 | 28.1 | -20.3 | -0.6 | 93.8 | -11.1 | 13.6
